Results on 32 molecules are retold here after US9018383B2, “Acylamino-substituted cyclic carboxylic acid derivatives and their use as pharmaceuticals” (Sanofi, priority 2009, dated 2015).

The target of the experiment is human Edg-2 receptor (Homo sapiens, UniProt Q92633). The experiment can be described thus: Determination of Edg-2 receptor inhibition by FLIPR measurements (LPA-mediated calcium liberation). Type of experiment: cell-based. As to conditions: CHO cells overexpressing human Edg-2 receptor, LPA 100 nM, fluo-4 calcium fluorescence; read-out: Inhibitory concentrations IC50 for inhibition of the Edg-2 receptor. The method, then:
A) Determination of Edg-2 Receptor Inhibition by Fluorescence Imaging Plate Reader (FLIPR) Measurements
The inhibition of the Edg-2 receptor (LPA1 receptor) by the compounds of the invention was quantified by the inhibitory effect on the LPA-mediated calcium liberation in a cell-based calcium fluorescence assay by use of Chinese hamster ovarian (CHO) cells in which the human Edg-2 receptor was stably overexpressed (Flp-In system, Invitrogen). […] Changes in intracellular calcium were determined by fluorescence measurement with the calcium-sensitive dye fluo-4 (Invitrogen) in a fluorescence imaging plate reader (FLIPR, […]).
CHO cells stably overexpressing the human Edg-2 receptor were seeded (40.000 per well) in black clear-bottomed poly-D-lysine-coated 96 well plates (Becton Dickinson, Biocoat cellware) approximately 18-24 h prior to the experiments. Cells were grown in an incubator at 37° C., 5% carbon dioxide and 95% humidity in cell culture media based on F-12 glutamax media (Gibco, #31765) supplemented with 1% (vol/vol) penicilline/streptomycine (PAN, #P06-07100), 10% (vol/vol) fetal calf serum (FCS, PAA, #A15-151) and hygromycin B (Invitrogen, #10687-010) 300 mg/l (final concentrations).
Prior to the FLIPR experiment, cells were loaded with fluo-4 acetoxymethyl ester (fluo-4 AM, Invitrogen, #F14202) for 60 min in an incubator at 37° C., 5% carbon dioxide and 95% humidity in dye-loading buffer consisting of Hanks' Balanced Salt Solution (HBSS, Invitrogen, #14065049) supplemented with fluo-4 AM at 2 μM (all data given for final concentration), Pluronic® F-127 0.05% (vol/vol) (Invitrogen, #P-3000 MP), HEPES 20 mM (Gibco, #15630), probenecid 2.5 mM (Sigma, #P-8761) and bovine serum albumin 0.05% (BSA, Sigma, #A-6003), adjusted to pH 7.5 with sodium hydroxide. During cell loading, fluo-4 AM is cleaved by intracellular esterase resulting in trapping of the dye fluo-4 within the cells. Loading was terminated by washing of the cells in a cell washer (Tecan Power washer) three times with the buffer specified afore but without fluo-4 AM and BSA. This latter buffer was also used as the buffer in the subsequent cell fluorescence measurements.
The dye-loaded and washed cells were pre-incubated for approximately 5 min with various concentrations of the test compound added as a solution in DMSO (0.3% vol/vol maximum final concentration of DMSO), or with DMSO in the respective concentration only (positive control). Subsequent addition of LPA (18:1, 1-oleoyl-sn-glycerol 3-phosphate; 100 nM final concentration) leads to liberation of intracellular calcium from internal stores resulting in a large transient increase of the fluo-4 fluorescence signal which was monitored over approximately 3 min. The percent inhibition caused by the test compound was determined from the maximum fluorescence response after LPA addition to cells pre-incubated with the compound as compared to the maximum fluorescence response after LPA addition to cells pre-incubated with DMSO only. All fluorescence values were corrected for the baseline fluorescence values obtained with cells which were pre-incubated with DMSO only and were not treated with LPA (baseline control). All measurements were performed in triplicate. From the percent inhibitions the inhibitory concentration IC50 was determined.

human Edg-2 receptor, sequence (Q92633 whole entry): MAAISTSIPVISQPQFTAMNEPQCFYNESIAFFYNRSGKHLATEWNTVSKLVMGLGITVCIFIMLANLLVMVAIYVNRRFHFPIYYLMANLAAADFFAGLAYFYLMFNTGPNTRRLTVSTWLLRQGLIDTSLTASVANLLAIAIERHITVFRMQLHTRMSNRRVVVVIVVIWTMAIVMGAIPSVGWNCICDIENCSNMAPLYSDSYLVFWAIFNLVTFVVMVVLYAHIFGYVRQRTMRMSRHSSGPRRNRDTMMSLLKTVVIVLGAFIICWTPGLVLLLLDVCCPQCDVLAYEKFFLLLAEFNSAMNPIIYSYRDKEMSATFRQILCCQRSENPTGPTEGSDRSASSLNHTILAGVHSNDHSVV

Consider `COc1ccc(C(=O)N[C@]2(C(=O)O)CC[C@H](C)CC2)cc1OCCc1ccccc1` [Example 406, cis-1-(4-Methoxy-3-phenethyloxy-benzoylamino)-4-methyl-cyclohexanecarboxylic acid], for which the IC50 lay within 0.1 to 1 µM. The same measure for `CC[C@H]1CC[C@](NC(=O)c2cnc(OC)c(OCCc3cccc(C)c3)c2)(C(=O)O)CC1` [Example 396, cis-4-Ethyl-1-{[6-methoxy-5-(2-m-tolyl-ethoxy)-pyridine-3-carbonyl]-amino}-cyclohexanecarboxylic acid]: under 0.1 µM; for `COc1ncc(C(=O)N[C@]2(C(=O)O)CC[C@H](C)CC2)cc1-c1cc(F)cc(F)c1` [Example 410]: under 0.1 µM; for `CC[C@H]1CC[C@](C(=O)O)(N(C)C(=O)c2ccc(OC)c(OCCc3cccc(C)c3)c2)CC1` [Example 441, trans-4-Ethyl-1-{[4-methoxy-3-(2-m-tolyl-ethoxy)-benzoyl]-methyl-amino}-cyclohexanecarboxylic acid]: 1 to 30 µM. As to `COc1ccc(-c2cc(C(=O)N[C@]3(C(=O)O)CC[C@@H](C)CC3)ccc2OC2CC(F)(F)C2)cc1Cl` [Example 443, Trans-1-{[3′-Chloro-6-(3,3-difluoro-cyclobutoxy)-4′-methoxy-biphenyl-3-carbonyl]-amino}-4-methyl-cyclohexanecarboxylic acid], the IC50 was in the range of 0.1 to 1 µM. The same measure for `COc1ccc(C(=O)NC2(C(=O)O)CCC(C)(C)CC2)cc1OCCc1cccc(C)c1` [Example 45]: 0.1 to 1 µM. The same measure for `COc1ccc(C(=O)NC2(C(=O)O)C[C@H]3CC[C@]2(C)C3(C)C)cc1OCCc1cccc(C)c1` (some centres unmarked) [Example 39]: 1 to 30 µM; for `COc1ncc(C(=O)N[C@]2(C(=O)O)CC[C@H](C)CC2)cc1OCCc1cccc(C)c1` [Example 79, cis-1-{[6-Methoxy-5-(2-m-tolyl-ethoxy)-pyridine-3-carbonyl]-amino}-4-methyl-cyclohexanecarboxylic acid]: under 0.1 µM. The same measure for `CC[C@H]1CC[C@](NC(=O)c2ccc(OC)c(OCCc3ccccc3)c2)(C(=O)O)CC1` [Example 206]: under 0.1 µM; for `COc1ncc(C(=O)N[C@]2(C(=O)O)CC[C@H](C(F)(F)F)CC2)cc1-c1cc(Cl)cc(C(F)(F)F)c1` [Example 380]: under 0.1 µM; for `Cc1cccc(CCOc2ccc(C(=O)N[C@]3(C(=O)O)CC[C@@H](C)CC3)cc2C(O)C(F)(F)F)c1` (stereo partly drawn) [Example 442, (R,S)-trans-4-Methyl-1-[4-(2-m-tolyl-ethoxy)-3-(2,2,2-trifluoro-1-hydroxy-ethyl)-benzoylamino]-cyclohexanecarboxylic acid]: under 0.1 µM. In the case of `CC[C@H]1CC[C@@](NC(=O)c2cc(OCCc3cccc(Cl)c3)c(C(C)=O)s2)(C(=O)O)CC1` [Example 439, trans-1-({5-Acetyl-4-[2-(3-chloro-phenyl)-ethoxy]-thiophene-2-carbonyl}-amino)-4-ethyl-cyclohexanecarboxylic acid], the IC50 was in the range of 0.1 to 1 µM. The same measure for `COc1ccc(C(=O)NC2(C(=O)O)CCC(F)CC2)cc1OCCc1cccc(C)c1` (centres unmarked) [Example 44]: 0.1 to 1 µM; for `COc1ncc(C(=O)N[C@]2(C(=O)O)CC[C@H](C(F)(F)F)CC2)cc1-c1cc(F)c(F)c(F)c1` [Example 375]: under 0.1 µM; for `CC[C@H]1CC[C@](NC(=O)c2cnc(OC)c(-c3cccc(OC(F)(F)F)c3)c2)(C(=O)O)CC1` [Example 299, cis-4-ethyl-1-{[6-methoxy-5-(3-trifluoromethoxy-phenyl)-pyridine-3-carbonyl]-amino}-cyclohexanecarboxylic acid]: under 0.1 µM.

As for `CC[C@H]1CC[C@](NC(=O)c2ccc(OC)c(OCCc3cccc(OC(F)(F)F)c3)c2)(C(=O)O)CC1` [Example 403, cis-4-Ethyl-1-{4-methoxy-3-[2-(3-trifluoromethoxy-phenyl)-ethoxy]-benzoylamino}-cyclohexanecarboxylic acid], the IC50 is under 0.1 µM.

Regarding `COc1ccc(C(=O)NC2(C(=O)O)CCCCCC2)cc1OCCc1cc(Cl)ccc1F` [Example 3, 1-{3-[2-(5-Chloro-2-fluoro-phenyl)-ethoxy]-4-methoxy-benzoylamino}-cycloheptanecarboxylic acid], the IC50 is under 0.1 µM. The figure for `COc1ncc(C(=O)N[C@]2(C(=O)O)CC[C@@H](C)CC2)cc1-c1cccc(C(F)(F)F)c1` [Example 318] is under 0.1 µM. As to `COc1ccc(C(=O)NC2(C(=O)O)CCCCC2)cc1OCCc1cccc(C)c1` [Example 38], the IC50 fell in the range of 0.1 to 1 µM. The figure for `COc1ccc(-c2cncc(C(=O)N[C@]3(C(=O)O)CC[C@H](C(F)(F)F)CC3)c2)cc1Cl` [Example 451, 1-{[5-(3-Chloro-4-methoxy-phenyl)-pyridine-3-carbonyl]-amino}-4-trifluoromethyl-cyclohexanecarboxylic acid] is under 0.1 µM; for `COc1ncc(C(=O)N[C@]2(C(=O)O)CC[C@H](C(F)(F)F)CC2)cc1-c1cccc(C(F)(F)F)c1F` [Example 377] it is under 0.1 µM. With `Cc1cccc(CCOc2cc(C(=O)NC3(C(=O)O)CCCCCC3)ccc2C(C)O)c1` (centres unmarked) [Example 61, 1-[4-(1-Hydroxy-ethyl)-3-(2-m-tolyl-ethoxy)-benzoylamino]-cycloheptanecarboxylic acid], the IC50 is 0.1 to 1 µM. The figure for `C[C@H]1CC[C@](NC(=O)c2ccc(CCCO)c(-c3cccc(C(F)(F)F)c3)c2)(C(=O)O)CC1` [Example 434, cis-1-{[6-(3-Hydroxy-propyl)-3′-trifluoromethyl-biphenyl-3-carbonyl]-amino}-4-methyl-cyclohexanecarboxylic acid] is 0.1 to 1 µM; for `Cc1cccc(CCOc2cc(C(=O)NC3(C(=O)O)CCCCCC3)ccc2C(C)F)c1` (centres unmarked) [Example 63, 1-[4-(1-Fluoro-ethyl)-3-(2-m-tolyl-ethoxy)-benzoylamino]-cycloheptanecarboxylic acid] it is under 0.1 µM. The same measure for `CC[C@H]1CC[C@](NC(=O)c2ccc(OC)c(-c3ccc(OC)c(Cl)c3)c2)(C(=O)O)CC1` [Example 351]: under 0.1 µM; for `CCc1ncc(C(=O)N[C@]2(C(=O)O)CC[C@H](C)CC2)cc1OCCc1cccc(Cl)c1` [Example 435, cis-1-({5-[2-(3-Chloro-phenyl)-ethoxy]-6-ethyl-pyridine-3-carbonyl}-amino)-4-methyl-cyclohexanecarboxylic acid]: 0.1 to 1 µM.

Consider `COc1ccc(C(=O)NC2(C(=O)O)CCCCCC2)cc1OCCc1c(C)n[nH]c1C` [Example 4], for which the IC50 was in the range of 0.1 to 1 µM. Regarding `CC[C@H]1CC[C@](NC(=O)c2cnc(OCCO)c(-c3ccc(OC)c(Cl)c3)c2)(C(=O)O)CC1` [Example 417], the IC50 is under 0.1 µM. On to `CC[C@H]1CC[C@](NC(=O)c2cncc(-c3ccc(OC)c(Cl)c3)c2)(C(=O)O)CC1` [Example 453, 1-{[5-(3-Chloro-4-methoxy-phenyl)-pyridine-3-carbonyl]-amino}-4-ethyl-cyclohexanecarboxylic acid], for which the IC50 is under 0.1 µM. The figure for `COc1ccc(C(=O)N[C@]2(C(=O)O)CC[C@H](C)CC2)cc1OCCc1cc(Cl)ccc1F` [Example 404, cis-1-{3-[2-(5-Chloro-2-fluoro-phenyl)-ethoxy]-4-methoxy-benzoylamino}-4-methyl-cyclohexanecarboxylic acid] is under 0.1 µM. The figure for `COc1ncc(C(=O)N[C@]2(C(=O)O)CC[C@@H](C)CC2)cc1OCCc1cccc(CCO)c1` [Example 90, trans-1-[(5-{2-[3-(2-Hydroxy-ethyl)-phenyl]-ethoxy}-6-methoxy-pyridine-3-carbonyl)-amino]-4-methyl-cyclohexanecarboxylic acid] is under 0.1 µM; for `COc1ccc(C(=O)N[C@]2(C(=O)O)CC[C@@H](C)CC2)cc1OCCc1cccc(CCO)c1` [Example 110, trans-1-(3-{2-[3-(2-Hydroxy-ethyl)-phenyl]-ethoxy}-4-methoxy-benzoylamino)-4-methyl-cyclohexanecarboxylic acid] it is under 0.1 µM.
